Test results from the supplement of paper PMC13380429.

What was measured:
Conditions in all cases: 72 h
Caco-2 [1] = assay: cell viability relative to DMSO; higher = less toxic
Calu-3 [2] = assay: as above
HepG2 [3] = assay: as above
U2OS [4] = assay: as above
Vero E6 [5] = assay: as above
Caco-2 [6] = assay: relative viability EC50 (midpoint between 100% and the lowest measured viability); higher = less toxic
Calu-3 [7] = assay: as above
HepG2 [8] = assay: as above
U2OS [9] = assay: as above
Vero E6 [10] = assay: as above
Caco-2 [11] = assay: drug sensitivity score (DSS) for viability; higher = more toxic; extreme values may be limits of the assay
Calu-3 [12] = assay: as above
HepG2 [13] = assay: as above
U2OS [14] = assay: as above
Vero E6 [15] = assay: as above

| SMILES | cell viability (Caco-2 [1]; 1 nM) [%] | cell viability (Caco-2 [1]; 10 nM) [%] | cell viability (Caco-2 [1]; 100 nM) [%] | cell viability (Caco-2 [1]; 1000 nM) [%] | cell viability (Caco-2 [1]; 10000 nM) [%] | cell viability (Calu-3 [2]; 1 nM) [%] | cell viability (Calu-3 [2]; 10 nM) [%] | cell viability (Calu-3 [2]; 100 nM) [%] | cell viability (Calu-3 [2]; 1000 nM) [%] | cell viability (Calu-3 [2]; 10000 nM) [%] | cell viability (HepG2 [3]; 1 nM) [%] | cell viability (HepG2 [3]; 10 nM) [%] | cell viability (HepG2 [3]; 100 nM) [%] | cell viability (HepG2 [3]; 1000 nM) [%] | cell viability (HepG2 [3]; 10000 nM) [%] | cell viability (U2OS [4]; 1 nM) [%] | cell viability (U2OS [4]; 10 nM) [%] | cell viability (U2OS [4]; 100 nM) [%] | cell viability (U2OS [4]; 1000 nM) [%] | cell viability (U2OS [4]; 10000 nM) [%] | cell viability (Vero E6 [5]; 1 nM) [%] | cell viability (Vero E6 [5]; 10 nM) [%] | cell viability (Vero E6 [5]; 100 nM) [%] | cell viability (Vero E6 [5]; 1000 nM) [%] | cell viability (Vero E6 [5]; 10000 nM) [%] | relative viability EC50 (Caco-2 [6]) [µM] | relative viability EC50 (Calu-3 [7]) [µM] | relative viability EC50 (HepG2 [8]) [µM] | relative viability EC50 (U2OS [9]) [µM] | relative viability EC50 (Vero E6 [10]) [µM] | drug sensitivity score (Caco-2 [11]) | drug sensitivity score (Calu-3 [12]) | drug sensitivity score (HepG2 [13]) | drug sensitivity score (U2OS [14]) | drug sensitivity score (Vero E6 [15]) |
| --- | --- | --- | --- | --- | --- | --- | --- | --- | --- | --- | --- | --- | --- | --- | --- | --- | --- | --- | --- | --- | --- | --- | --- | --- | --- | --- | --- | --- | --- | --- | --- | --- | --- | --- | --- |
| CCCN1CCC[C@@H]2Cc3n[nH]cc3C[C@H]21 [quinpirol-(-)] | 102 | 93.7 | 99.8 | 99.1 | 106 | 98.2 | 95.9 | 98.5 | 93.1 | 95.9 | 93.6 | 102 | 103 | 99.3 | 97.2 | 92.5 | 98.7 | 94.9 | 101 | 102 | 96.8 | 93.1 | 97.6 | 93.6 | 107 | > 10 | > 10 | > 10 | > 10 | > 10 | 0 | 0 | 0 | 0 | 0 |
| CC(C)(C)c1cc(NC(=O)Nc2ccc(-c3cn4c(n3)sc3cc(OCCN5CCOCC5)ccc34)cc2)no1 [quizartinib] | 103 | 105 | 103 | 90.9 | 86.5 | 104 | 97.3 | 96.6 | 93.4 | 96.1 | 85.7 | 97.5 | 90.9 | 89 | 93.3 | 101 | 97.4 | 103 | 93.6 | 103 | 99.1 | 100 | 98.8 | 104 | 99.8 | > 10 | > 10 | > 10 | > 10 | > 10 | 0.6 | 0 | 0 | 0 | 0 |
| CCN1CCC[C@H]1CNC(=O)c1c(OC)ccc(Br)c1OC [remoxipride] | 99.9 | 104 | 88.7 | 99.1 | 92.7 | 96.3 | 113 | 99.7 | 94.3 | 79.9 | 111 | 92 | 101 | 96.5 | 94.1 | 101 | 103 | 98 | 105 | 95.7 | 96.2 | 100 | 94.3 | 91.4 | 91.7 | > 10 | > 10 | > 10 | > 10 | > 10 | 0 | 1.3 | 0 | 0 | 0 |
| O=C(Nc1ccccc1)c1ccccc1O [salicylanilide] | 80 | 101 | 112 | 102 | 90.6 | 107 | 100 | 102 | 90.9 | 111 | 102 | 96.6 | 94.4 | 94.6 | 75.6 | 95.9 | 96.9 | 97.1 | 93.8 | 97.5 | 95.9 | 98.4 | 98.4 | 100 | 99.9 | > 10 | > 10 | > 10 | > 10 | > 10 | 0 | 0 | 1.6 | 0 | 0 |
| CC(C)[C@H](O)C(=O)N[C@@H](C)C(=O)N[C@@H]1C(=O)N(C)CCc2ccccc21 [semagacestat] | 96.2 | 107 | 98.2 | 102 | 92.6 | 95.8 | 94.8 | 94.7 | 99.8 | 98.1 | 99.7 | 105 | 114 | 96.3 | 92.1 | 99.9 | 100 | 94 | 96.8 | 92.3 | 102 | 101 | 99.9 | 100 | 99.4 | > 10 | > 10 | > 10 | > 10 | > 10 | 0 | 0 | 0 | 0 | 0 |
| Cc1c(S(=O)(=O)O)oc2c1C(=O)C(=O)c1c-2ccc2c1CCCC2(C)C [sodium-tanshinone-II-A-sulfonate] | 97.7 | 96.3 | 109 | 93.2 | 102 | 90.2 | 100 | 101 | 99.1 | 98.6 | 106 | 92.2 | 116 | 95.9 | 107 | 96.4 | 99.7 | 91.1 | 99.6 | 94.6 | 103 | 100 | 97.5 | 84.5 | 94.1 | > 10 | > 10 | > 10 | > 10 | > 10 | 0 | 0 | 0 | 0 | 1.8 |
| CCCCC(CC)CCC(CC(C)C)OS(=O)(=O)O (stereo not given) [sodium-tetradecyl-sulfate] | 100 | 83 | 95.5 | 87.6 | 104 | 98.8 | 91.9 | 103 | 102 | 97.5 | 93.1 | 96.5 | 112 | 86.2 | 98.6 | 103 | 96 | 98.3 | 104 | 99.5 | 101 | 96.1 | 99.7 | 91 | 101 | > 10 | > 10 | > 10 | > 10 | > 10 | 0 | 0 | 0 | 0 | 0 |
| CC(C)(N)CC12CC3CC(CC(C3)C1)C2 [somantadine] | 100 | 95.9 | 104 | 96.2 | 93.4 | 100 | 99.8 | 99.1 | 94.3 | 96.8 | 100 | 101 | 95.5 | 84.8 | 87.4 | 100 | 95.5 | 99.5 | 91.7 | 92.4 | 97.1 | 98.3 | 100 | 100 | 96.1 | > 10 | > 10 | > 10 | > 10 | > 10 | 0 | 0 | 1.9 | 0 | 0 |
| CCCCCCCCCCCCC/C=C/[C@@H](O)[C@@H](N)CO[P@](=O)(O)OCC[N+](C)(C)C [sphingosylphosphorylcholine] | 91 | 90.4 | 102 | 101 | 102 | 94.2 | 106 | 87.7 | 97.5 | 107 | 86 | 98.8 | 88.5 | 102 | 104 | 94 | 97 | 101 | 95.7 | 100 | 99.4 | 103 | 94.1 | 105 | 109 | > 10 | > 10 | > 10 | > 10 | > 10 | 0 | 0 | 0 | 0 | 0 |
| Cc1ccc2c(c1)[C@H]1CN(C)CC[C@H]1N2 [stobadine] | 96.5 | 91.9 | 92.2 | 96 | 95.8 | 97.2 | 116 | 93 | 94.5 | 102 | 107 | 110 | 97.2 | 97.4 | 95.8 | 100 | 98.7 | 101 | 99.6 | 101 | 101 | 102 | 99.7 | 103 | 94.1 | > 10 | > 10 | > 10 | > 10 | > 10 | 0 | 0 | 0 | 0 | 0 |
| C[C@H](CCC(=O)NCCS(=O)(=O)O)[C@H]1CC[C@H]2[C@@H]3[C@H](O)C[C@@H]4C[C@H](O)CC[C@]4(C)[C@H]3C[C@H](O)[C@]12C [taurocholate] | 110 | 86.9 | 104 | 87.2 | 92.2 | 103 | 99 | 109 | 102 | 96.3 | 105 | 74 | 99.8 | 108 | 98.4 | 100 | 98.9 | 101 | 98.9 | 99.2 | 104 | 106 | 107 | 110 | 95 | > 10 | > 10 | > 10 | > 10 | > 10 | 0 | 0 | 0 | 0 | 0 |
| O=S1(=O)CCN(CN2CCS(=O)(=O)NC2)CN1 [taurolidine] | 102 | 118 | 104 | 96.6 | 87.9 | 99.8 | 95.2 | 97.6 | 92.7 | 94.4 | 106 | 89.8 | 104 | 99.2 | 97.2 | 97.3 | 98.3 | 95.8 | 103 | 98.7 | 114 | 99.7 | 101 | 97.5 | 99.4 | > 10 | > 10 | > 10 | > 10 | > 10 | 0.2 | 0 | 0 | 0 | 0 |
| C[N+]1(C)[C@@H]2C[C@@H](OC(=O)C(O)(c3cccs3)c3cccs3)C[C@H]1[C@@H]1O[C@@H]12 [tiotropium] | 105 | 100 | 101 | 99.5 | 104 | 102 | 98.7 | 96.4 | 95.2 | 108 | 102 | 93.9 | 98.8 | 99.4 | 104 | 93.4 | 94 | 95.3 | 96.8 | 108 | 103 | 98.6 | 101 | 95.9 | 102 | > 10 | > 10 | > 10 | > 10 | > 10 | 0 | 0 | 0 | 0 | 0 |
| COc1ccc(/C=C/C(=O)O)cc1 [trans-4-methoxycinnamic-acid] | 95.1 | 99.6 | 88.7 | 100 | 88.3 | 103 | 92.2 | 108 | 98 | 98.8 | 106 | 92 | 100 | 91.7 | 96.3 | 101 | 96.3 | 102 | 98.6 | 97.5 | 99.3 | 102 | 98.1 | 103 | 97.7 | > 10 | > 10 | > 10 | > 10 | > 10 | 0 | 0 | 0 | 0 | 0 |
